Measurements reported in patent US12371691B2, “Nano complex for targeted repairing of neurovascular lesion, and preparation and use thereof” (SHANGHAI JIAOTONG UNIVERSITY SCHOOL OF MEDICINE, priority 2019, dated 2025).
“Also recorded” adds a separate entry of the source. No end group written: not given here.

Columns and labels:
[1] = system: Mouse-derived cerebrovascular endothelial cells bEnd3 cells; assay: High-content quantitative analysis of cellular uptake of red fluorescence-labeled nano complexes; type: cell-based; conditions: DiI-labeled nano complexes modified with the targeted peptide, 5 μg/mL by lipid mass, 6 h; FIG. 3
Procedure: High-content quantitative analysis was performed to determine cellular uptake of each of the above-mentioned nano complexes. Mouse-derived cerebrovascular endothelial cells bEnd3 cells were seeded in a 96-well plate at a density of 5000/well and cultured for 24 h. The original culture solution was aspirated and discarded, and 100 μL of the above-mentioned 8 red fluorescence-labeled nanostructure solutions (5 μg/mL, calculated by lipid mass) were added, respectively; the mixture was incubated in a cell incubator for 6 h, then fixed with 3.7% formaldehyde at 37° C. for 10 min, nuclear stained with Hoechest for 10 min, washed three times with PBS, and then photographed and subjected to quantitative analysis with a high-content Target Activation procedure. […]
Moreover, a red fluorescence-labeled targeted nano complex was prepared as described in the method of Example 2. Cellular uptake of a targeted peptide-modified nano complex was subjected to high-content quantitative analysis. The cerebrovascular endothelial cells were treated with targeted peptide-modified nano complexes containing targeted peptides of different ratios (1500:1, 1000:1, 500:1, 250:1, 100:1, 30:1, 10:1, and 5:1, the molar ratio of the lipid to the targeted peptide); the mixture was incubated in a cell incubator for 6 h, then fixed, nuclear stained, and subjected to high-content quantitative analysis.

[2] = system: cerebral vessels of AD model mice; assay: Comparison of vascular binding capacity, two-photon imaging of brain after tail vein administration; type: in vivo, mouse; conditions: DiI-labeled nano complexes modified with the targeted peptide, 3 hours, FIG. 4
Procedure: The AD model animal mice were administered via tail veins with the above-mentioned red fluorescence-labeled nano complexes modified with targeted peptides (containing 8 bridge structure peptides), and were sacrificed 3 hours later. The mice were perfused with normal saline until the blood was not red, and the brain thereof was taken and photographed by a two-photon microscope. The nano complexes bound on cerebral vessels were imaged, and Image J image analysis software was used to analyze the fluorescence intensity of the red fluorescence-labeled nano complexes bound on the cerebral vessels.

AC-Phe-Ala-Glu-Lys-Phe-Lys-Glu-Ala-Val-Lys-Asp-Tyr-Phe-Ala-Lys-Phe-Trp-Asp-Gly-Ala-Gly-Ala-Glu-Leu-Lys-Val-Leu-Met-Glu-Lys-Glu-Leu (Ac-FAEKFKEAVKDYFAKFWDGAGAELKVLMEKEL) [R6, targeted peptide with bridge Gly-Ala-Gly-Ala; tested as modifier of DiI-labeled nano complex]
uptake of nano complex by cerebrovascular endothelial cells (bridge structure peptide screen) [1]: good effect on uptake; also recorded: better uptake | fluorescence intensity of nano complexes bound on cerebral vessels (bridge structure peptide screen) [2]: dominant targeted peptides

AC-Phe-Ala-Glu-Lys-Phe-Lys-Glu-Ala-Val-Lys-Asp-Tyr-Phe-Ala-Lys-Phe-Trp-Asp-Gly-Gly-Glu-Leu-Lys-Val-Leu-Met-Glu-Lys-Glu-Leu (Ac-FAEKFKEAVKDYFAKFWDGGELKVLMEKEL) [R1, targeted peptide with bridge Gly-Gly; tested as modifier of DiI-labeled nano complex]
uptake of nano complex by cerebrovascular endothelial cells (bridge structure peptide screen) [1]: good effect on uptake; also recorded: better uptake | fluorescence intensity of nano complexes bound on cerebral vessels (bridge structure peptide screen) [2]: dominant targeted peptides

AC-Phe-Ala-Glu-Lys-Phe-Lys-Glu-Ala-Val-Lys-Asp-Tyr-Phe-Ala-Lys-Phe-Trp-Asp-Gly-Gly-Ser-Gly-Gly-Glu-Leu-Lys-Val-Leu-Met-Glu-Lys-Glu-Leu (Ac-FAEKFKEAVKDYFAKFWDGGSGGELKVLMEKEL) [R7, targeted peptide with bridge Gly-Gly-Ser-Gly-Gly; tested as modifier of DiI-labeled nano complex]
uptake of nano complex by cerebrovascular endothelial cells (bridge structure peptide screen) [1]: good effect on uptake

AC-Phe-Ala-Glu-Lys-Phe-Lys-Glu-Ala-Val-Lys-Asp-Tyr-Phe-Ala-Lys-Phe-Trp-Asp-Gly-Ser-Gly-Glu-Leu-Lys-Val-Leu-Met-Glu-Lys-Glu-Leu (Ac-FAEKFKEAVKDYFAKFWDGSGELKVLMEKEL) [R4, targeted peptide with bridge Gly-Ser-Gly; tested as modifier of DiI-labeled nano complex]
uptake of nano complex by cerebrovascular endothelial cells (bridge structure peptide screen) [1]: good effect on uptake; also recorded: better uptake; also recorded: best uptake | fluorescence intensity of nano complexes bound on cerebral vessels (bridge structure peptide screen) [2]: dominant targeted peptides; also recorded: optimal targeted peptide

AC-Phe-Ala-Glu-Lys-Phe-Lys-Glu-Ala-Val-Lys-Asp-Tyr-Phe-Ala-Lys-Phe-Trp-Asp-Gly-Ser-Ser-Ser-Gly-Gly-Glu-Leu-Lys-Val-Leu-Met-Glu-Lys-Glu-Leu (Ac-FAEKFKEAVKDYFAKFWDGSSSGGELKVLMEKEL) [R8, targeted peptide with bridge Gly-Ser-Ser-Ser-Gly-Gly; tested as modifier of DiI-labeled nano complex]
uptake of nano complex by cerebrovascular endothelial cells (bridge structure peptide screen) [1]: good effect on uptake

AC-Phe-Ala-Glu-Lys-Phe-Lys-Glu-Ala-Val-Lys-Asp-Tyr-Phe-Ala-Lys-Phe-Trp-Asp-Ile-Ala-Glu-Leu-Lys-Val-Leu-Met-Glu-Lys-Glu-Leu (Ac-FAEKFKEAVKDYFAKFWDIAELKVLMEKEL) [R2, targeted peptide with bridge Ile-Ala; tested as modifier of DiI-labeled nano complex]
uptake of nano complex by cerebrovascular endothelial cells (bridge structure peptide screen) [1]: good effect on uptake

AC-Phe-Ala-Glu-Lys-Phe-Lys-Glu-Ala-Val-Lys-Asp-Tyr-Phe-Ala-Lys-Phe-Trp-Asp-Ile-Ala-Ile-Glu-Leu-Lys-Val-Leu-Met-Glu-Lys-Glu-Leu (Ac-FAEKFKEAVKDYFAKFWDIAIELKVLMEKEL) [R5, targeted peptide with bridge Ile-Ala-Ile; tested as modifier of DiI-labeled nano complex]
uptake of nano complex by cerebrovascular endothelial cells (bridge structure peptide screen) [1]: good effect on uptake; also recorded: better uptake | fluorescence intensity of nano complexes bound on cerebral vessels (bridge structure peptide screen) [2]: dominant targeted peptides

AC-Phe-Ala-Glu-Lys-Phe-Lys-Glu-Ala-Val-Lys-Asp-Tyr-Phe-Ala-Lys-Phe-Trp-Asp-Ile-Gly-Glu-Leu-Lys-Val-Leu-Met-Glu-Lys-Glu-Leu (Ac-FAEKFKEAVKDYFAKFWDIGELKVLMEKEL) [R3, targeted peptide with bridge Ile-Gly; tested as modifier of DiI-labeled nano complex]
uptake of nano complex by cerebrovascular endothelial cells (bridge structure peptide screen) [1]: good effect on uptake
